# Source: paper PMC8185074, “Anchor extension: a structure-guided approach to design cyclic peptides targeting enzyme active sites” (Nature Communications, 2021)
# pIC50: −log10 of the molar value. Where two headings read alike, the source gives them in different places. Peptide text beside a SMILES is read from it.
# How the values were obtained:
# Type in all cases: biochemical
# HDAC2 [1] = target: T1, HDAC2 (Homo sapiens, UniProt Q92769); assay: Initial HDAC2 IC50 estimate (BPS Biosciences HDAC fluorogenic assay kit)
# T1 construct: purchased Reaction Biology Corporation (assay run by the CRO)
# T1 sequence (Q92769 whole entry): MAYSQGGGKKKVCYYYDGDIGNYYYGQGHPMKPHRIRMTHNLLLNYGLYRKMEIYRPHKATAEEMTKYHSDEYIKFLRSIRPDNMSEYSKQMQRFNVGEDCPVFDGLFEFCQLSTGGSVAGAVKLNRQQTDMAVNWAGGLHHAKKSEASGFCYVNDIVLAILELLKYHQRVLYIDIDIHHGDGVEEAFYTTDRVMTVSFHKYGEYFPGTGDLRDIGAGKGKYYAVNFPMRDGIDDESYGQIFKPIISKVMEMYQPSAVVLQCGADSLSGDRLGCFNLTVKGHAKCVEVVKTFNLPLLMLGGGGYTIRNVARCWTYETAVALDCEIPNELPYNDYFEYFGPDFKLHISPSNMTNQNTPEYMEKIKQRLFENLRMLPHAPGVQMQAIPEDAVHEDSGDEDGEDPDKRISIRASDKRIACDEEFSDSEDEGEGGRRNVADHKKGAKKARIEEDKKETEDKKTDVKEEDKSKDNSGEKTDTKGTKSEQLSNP
# Procedure, shortened: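 Inhibition measured by kit-based fluorogenic HDAC activity assays, with each point in duplicate or triplicate. Values come from a full 1 µM–100 pM series (1:10 steps) or are range estimates from just 20 nM and 200 nM.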
# HDAC8 = target: T2, HDAC8 (Homo sapiens, UniProt Q9BY41); assay: HDAC8 inhibition, full IC50 measurement (Reaction Biology; fluorogenic p53 peptide RHKK(Ac)AMC); conditions: t1/t2 replicates
# T2 construct: purchased Reaction Biology Corporation (assay run by the CRO)
# T2 sequence (Q9BY41 1-377): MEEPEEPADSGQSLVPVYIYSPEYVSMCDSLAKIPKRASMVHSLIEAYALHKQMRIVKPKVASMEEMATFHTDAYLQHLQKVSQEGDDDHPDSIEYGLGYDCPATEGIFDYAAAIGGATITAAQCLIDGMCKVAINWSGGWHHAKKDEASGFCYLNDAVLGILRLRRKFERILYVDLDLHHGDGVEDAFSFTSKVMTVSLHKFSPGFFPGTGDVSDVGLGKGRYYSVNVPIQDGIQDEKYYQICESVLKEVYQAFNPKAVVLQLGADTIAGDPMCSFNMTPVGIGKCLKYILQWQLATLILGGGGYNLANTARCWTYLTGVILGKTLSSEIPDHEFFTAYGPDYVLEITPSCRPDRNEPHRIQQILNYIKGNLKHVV
# Procedure, shortened: (§1)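 Deacetylation of 50 μM RHKK(Ac)AMC is measured after 1 h at 30 °C in pH 8.0 Tris buffer (1% DMSO, 1 mg/ml BSA). Developer ends the reaction; the post-plateau 360/460 nm signal is fitted to IC50, averaging replicate measurements.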
# HDAC1 = target: T3, HDAC1 (Homo sapiens, UniProt Q13547); assay: HDAC1 inhibition, full IC50 measurement (Reaction Biology; fluorogenic p53 peptide RHKK(Ac)AMC); conditions: t1/t2 replicates
# T3 construct: purchased Reaction Biology Corporation (assay run by the CRO)
# T3 sequence (Q13547 whole entry): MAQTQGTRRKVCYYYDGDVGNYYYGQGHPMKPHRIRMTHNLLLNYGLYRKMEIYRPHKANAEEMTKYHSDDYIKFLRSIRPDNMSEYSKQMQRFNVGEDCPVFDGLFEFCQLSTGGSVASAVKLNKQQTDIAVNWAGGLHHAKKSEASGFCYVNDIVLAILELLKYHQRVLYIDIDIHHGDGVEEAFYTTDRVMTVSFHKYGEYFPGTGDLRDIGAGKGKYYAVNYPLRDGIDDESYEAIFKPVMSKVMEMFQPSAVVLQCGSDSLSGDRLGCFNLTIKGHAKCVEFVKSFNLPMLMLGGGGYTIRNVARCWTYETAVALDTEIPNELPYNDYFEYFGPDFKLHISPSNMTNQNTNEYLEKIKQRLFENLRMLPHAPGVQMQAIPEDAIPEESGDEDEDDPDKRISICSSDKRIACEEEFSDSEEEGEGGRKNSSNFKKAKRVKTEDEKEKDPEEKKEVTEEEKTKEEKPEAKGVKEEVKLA
# Procedure, shortened: as §1
# HDAC2 [2] = target: T1, HDAC2; assay: HDAC2 inhibition, full IC50 measurement (Reaction Biology; fluorogenic p53 peptide RHKK(Ac)AMC)
# Procedure, shortened: as §1
structure (smiles),measurement,setting,value
"N=C(N)NCCC[C@@H]1NC(=O)[C@@H](CCCNC(=N)N)NC(=O)[C@H]2CCCN2C(=O)[C@@H](Cc2c[nH]cn2)NC(=O)[C@H](Cc2ccc(O)cc2)NC(=O)[C@H](CCCCCS)NC(=O)[C@H](CCc2ccccc2)NC(=O)[C@@H](CO)NC(=O)[C@H](CC(=O)O)NC1=O [des3.3.1, SHA-Tyr-dHis-dPro-dArg-Arg-Asp-dSer-C27] (HELM PEPTIDE1{[O=C([C@H](CCCCCS)N[*:1])[*:2]].Y.[dH].[dP].[dR].R.D.[dS].[O=C([C@H](CCc1ccccc1)N[*:1])[*:2]]}$PEPTIDE1,PEPTIDE1,1:R1-9:R2$$$V2.0)",pIC50,"HDAC2 [1]; Supp. Table 4, rough estimates, for promising hits full measurements, read-out: HDAC2 activity (initial values for HDAC2 IC50)",7.60
same,pIC50,"HDAC2 [1]; Supplementary Dataset 2, read-out: HDAC2 activity (initial activity)",7.70
same,HDAC8 activity raw data (signal),"HDAC8; peptide conc. 1.00E-05 M, listed as des3.3.1_t1",1764805
same,HDAC8 activity raw data (signal),"HDAC8; peptide conc. 1.00E-05 M, listed as des3.3.1_t2",2650341
same,HDAC8 activity raw data (signal),"HDAC8; peptide conc. 1.11E-06 M, listed as des3.3.1_t1",12709203
same,HDAC8 activity raw data (signal),"HDAC8; peptide conc. 1.11E-06 M, listed as des3.3.1_t2",10450749
same,HDAC8 activity raw data (signal),"HDAC8; peptide conc. 1.23E-07 M, listed as des3.3.1_t1",26946160
same,HDAC8 activity raw data (signal),"HDAC8; peptide conc. 1.23E-07 M, listed as des3.3.1_t2",26450742
same,HDAC8 activity raw data (signal),"HDAC8; peptide conc. 1.37E-08 M, listed as des3.3.1_t1",39769433
same,HDAC8 activity raw data (signal),"HDAC8; peptide conc. 1.37E-08 M, listed as des3.3.1_t2",37609928
same,HDAC8 activity raw data (signal),"HDAC8; peptide conc. 1.52E-09 M, listed as des3.3.1_t1",46887256
same,HDAC8 activity raw data (signal),"HDAC8; peptide conc. 1.52E-09 M, listed as des3.3.1_t2",44277806
same,HDAC8 activity raw data (signal),"HDAC8; peptide conc. 3.33E-06 M, listed as des3.3.1_t1",5825269
same,HDAC8 activity raw data (signal),"HDAC8; peptide conc. 3.33E-06 M, listed as des3.3.1_t2",6935130
same,HDAC8 activity raw data (signal),"HDAC8; peptide conc. 3.70E-07 M, listed as des3.3.1_t1",21428540
same,HDAC8 activity raw data (signal),"HDAC8; peptide conc. 3.70E-07 M, listed as des3.3.1_t2",18809141
same,HDAC8 activity raw data (signal),"HDAC8; peptide conc. 4.12E-08 M, listed as des3.3.1_t1",34070523
same,HDAC8 activity raw data (signal),"HDAC8; peptide conc. 4.12E-08 M, listed as des3.3.1_t2",34526681
same,HDAC8 activity raw data (signal),"HDAC8; peptide conc. 4.57E-09 M, listed as des3.3.1_t1",42350569
same,HDAC8 activity raw data (signal),"HDAC8; peptide conc. 4.57E-09 M, listed as des3.3.1_t2",43646566
same,HDAC8 activity raw data (signal),"HDAC8; peptide conc. 5.08E-10 M, listed as des3.3.1_t1",45458566
same,HDAC8 activity raw data (signal),"HDAC8; peptide conc. 5.08E-10 M, listed as des3.3.1_t2",46659013
same,HDAC1 activity raw data (signal),"HDAC1; peptide conc. 1.00E-06 M, listed as des3.3.1_t1",15410
same,HDAC1 activity raw data (signal),"HDAC1; peptide conc. 1.00E-06 M, listed as des3.3.1_t2",7555
same,HDAC1 activity raw data (signal),"HDAC1; peptide conc. 1.11E-07 M, listed as des3.3.1_t1",112128
same,HDAC1 activity raw data (signal),"HDAC1; peptide conc. 1.11E-07 M, listed as des3.3.1_t2",105674
same,HDAC1 activity raw data (signal),"HDAC1; peptide conc. 1.23E-08 M, listed as des3.3.1_t1",518542
same,HDAC1 activity raw data (signal),"HDAC1; peptide conc. 1.23E-08 M, listed as des3.3.1_t2",461507
same,HDAC1 activity raw data (signal),"HDAC1; peptide conc. 1.37E-09 M, listed as des3.3.1_t1",889775
same,HDAC1 activity raw data (signal),"HDAC1; peptide conc. 1.37E-09 M, listed as des3.3.1_t2",866345
same,HDAC1 activity raw data (signal),"HDAC1; peptide conc. 1.52E-10 M, listed as des3.3.1_t1",1024825
same,HDAC1 activity raw data (signal),"HDAC1; peptide conc. 1.52E-10 M, listed as des3.3.1_t2",1088311
same,HDAC1 activity raw data (signal),"HDAC1; peptide conc. 3.33E-07 M, listed as des3.3.1_t1",46006
same,HDAC1 activity raw data (signal),"HDAC1; peptide conc. 3.33E-07 M, listed as des3.3.1_t2",42579
same,HDAC1 activity raw data (signal),"HDAC1; peptide conc. 3.70E-08 M, listed as des3.3.1_t1",265387
same,HDAC1 activity raw data (signal),"HDAC1; peptide conc. 3.70E-08 M, listed as des3.3.1_t2",253770
same,HDAC1 activity raw data (signal),"HDAC1; peptide conc. 4.12E-09 M, listed as des3.3.1_t1",789498
same,HDAC1 activity raw data (signal),"HDAC1; peptide conc. 4.12E-09 M, listed as des3.3.1_t2",714925
same,HDAC1 activity raw data (signal),"HDAC1; peptide conc. 4.57E-10 M, listed as des3.3.1_t1",1015951
same,HDAC1 activity raw data (signal),"HDAC1; peptide conc. 4.57E-10 M, listed as des3.3.1_t2",1019110
same,HDAC1 activity raw data (signal),"HDAC1; peptide conc. 5.08E-11 M, listed as des3.3.1_t1",1072870
same,HDAC1 activity raw data (signal),"HDAC1; peptide conc. 5.08E-11 M, listed as des3.3.1_t2",1116290
same,HDAC2 activity raw data (signal),"HDAC2 [2]; Conc. 1.00E-06 M, t1",33408
same,HDAC2 activity raw data (signal),"HDAC2 [2]; Conc. 1.00E-06 M, t2",20115
same,HDAC2 activity raw data (signal),"HDAC2 [2]; Conc. 1.11E-07 M, t1",236730
same,HDAC2 activity raw data (signal),"HDAC2 [2]; Conc. 1.11E-07 M, t2",242180
same,HDAC2 activity raw data (signal),"HDAC2 [2]; Conc. 1.23E-08 M, t1",774356
same,HDAC2 activity raw data (signal),"HDAC2 [2]; Conc. 1.23E-08 M, t2",764329
same,HDAC2 activity raw data (signal),"HDAC2 [2]; Conc. 1.37E-09 M, t1",1033572
same,HDAC2 activity raw data (signal),"HDAC2 [2]; Conc. 1.37E-09 M, t2",1142758
same,HDAC2 activity raw data (signal),"HDAC2 [2]; Conc. 1.52E-10 M, t1",1093848
same,HDAC2 activity raw data (signal),"HDAC2 [2]; Conc. 1.52E-10 M, t2",1228270
same,HDAC2 activity raw data (signal),"HDAC2 [2]; Conc. 3.33E-07 M, t1",99662
same,HDAC2 activity raw data (signal),"HDAC2 [2]; Conc. 3.33E-07 M, t2",91701
same,HDAC2 activity raw data (signal),"HDAC2 [2]; Conc. 3.70E-08 M, t1",494195
same,HDAC2 activity raw data (signal),"HDAC2 [2]; Conc. 3.70E-08 M, t2",473509
same,HDAC2 activity raw data (signal),"HDAC2 [2]; Conc. 4.12E-09 M, t1",948142
same,HDAC2 activity raw data (signal),"HDAC2 [2]; Conc. 4.12E-09 M, t2",1005576
same,HDAC2 activity raw data (signal),"HDAC2 [2]; Conc. 4.57E-10 M, t1",1113632
same,HDAC2 activity raw data (signal),"HDAC2 [2]; Conc. 4.57E-10 M, t2",1221209
same,HDAC2 activity raw data (signal),"HDAC2 [2]; Conc. 5.08E-11 M, t1",1186904
same,HDAC2 activity raw data (signal),"HDAC2 [2]; Conc. 5.08E-11 M, t2",1232500
